Test results taken from US20110166191A1, “3-(2-amino-ethyl)-5-(3-cyclohexyl-propylidene)-thiazolidine-2,4-dione and its derivatives as multiple signaling pathway inhibitors and for the treatment of cancer” (priority 2010, published 2011).

Legend:
PC-3 = experiment: Cell viability assay; assay type: cell-based; details: Homo sapiens, PC-3 cells, 24 hrs, read-out: Inhibition of cancer cell proliferation IC50
Method: (§1) Cells were cultured at a density of 5×10^4 (U937) or 1×10^4 (PC-3, DU145, M12, HT29) cells per well in flat bottomed 96-well plates and treated with various concentrations of test compound at 37° C. (5% CO2). After 24 h, 20 μL of CellTiter 96® Aqueous One Solution Reagent (Promega, Madison, Wis.) was added to each well according to the manufacturer's instructions. After 1 hour, the cell viability was determined by measuring the absorbance at 490 nm using a micro-plate reader.

DU145 = experiment: Cell viability assay; assay type: cell-based; details: Homo sapiens, DU-145, DU145 cells, 24 hrs, read-out: Inhibition of cancer cell proliferation IC50
Method: as §1

M12 = experiment: Cell viability assay; assay type: cell-based; details: M12 cells, 24 hrs, read-out: Inhibition of cancer cell proliferation IC50
Method: as §1

U937 = experiment: Cell viability assay; assay type: cell-based; details: Homo sapiens, U-937, U937 cells, 24 hrs, read-out: Inhibition of cancer cell proliferation IC50
Method: as §1

Toxicity studies in mice = assay type: in vivo; details: B6C3F1 mice, 20 mg/kg orally, 21 days
Method: Female B6C3F1 mice (12/group) were given example 4 orally at 30 mg/kg, 50 mg/kg and 80 mg/kg dosage or example 820 mg/kg orally for 21 days.

p-MEK = experiment: Western blot analysis of p-MEK in U937 cells; assay type: cell-based; details: PMA/TPA 200 nM stimulation
Method: FIG. 1. U937 cells were treated with Formula II prepared as described in Example 4 [i.e. 3-(2-aminoethyl)-5-(3-cyclohexylpropylidene)thiazolidine-2,4-dione] for 1 h, then stimulated with PMA (200 nM) for 30 min. Lysates were analyzed for p-Akt, p-MEK, p-ERK and α-tubulin by western blot analysis.
Cells (5×10^5 per ml) were treated with various concentrations of test compound at 37° C. (5% CO2) for 3 hrs, then stimulated with TPA at a final concentration of 200 nM for 20 min. Samples from whole-cell pellets were prepared and 30 μg protein for each condition was subjected to SDS-PAGE, transferred onto a PVDF membrane, and blocked with 5% fat-free milk for 30 min. The membrane is probed with primary antibodies overnight at 4° C. followed by incubation with horseradish peroxidase-labeled anti-mouse IgG (1:5000, BD Biosciecne). The immunoreactive bands are detected by chemiluminescence methods (Pierce) and visualized on Kodak Omat film. The following primary antibodies were used: phospho-p44/42 MAPK (ERK1/2, Thr202/Tyr204), p44/42 MAPK, phospho-p90RSK (Thr359/Ser363), RSK1/RSK2/RSK3 (Cell Signaling). Blots were reprobed with antibodies against α-tubulin to ensure equal loading and transfer of proteins.

Row | IC50 (PC-3) [µM] | IC50 (DU145) [µM] | IC50 (U937) [µM] | Structure (SMILES) | IC50 (M12) [µM] | effects on general health and body weight (Toxicity studies in mice) | p-MEK level (western blot) (p-MEK)
1 | 14.6 | 30.8 | 12.2 | NCCN1C(=O)S/C(=C\CCc2ccccc2)C1=O [Example 8, 3-(2-aminoethyl)-5-(3-phenylpropylidene)thiazolidine-2,4-dione] | 14.8 | no effects on general health and body weight were observed | –
2 | – | – | – | O=C(NOCC1CC1)c1ccc(F)c(F)c1Nc1ccc(I)cc1Cl [PD184352, reference compound] | – | – | dose-dependent increase in the p-MEK levels
